{"source": "patent US11905518B2", "about": "“Small auxin upregulated (SAUR) gene for the improvement of root system architecture, waterlogging tolerance, drought resistance and yield in plants and methods of uses” (Curators of the University of Missouri, priority 2018, dated 2024)", "test_system": "NILs (NIL147_aa and NIL147_AA)", "assay": "Waterlogging treatment of NILs with auxin biosynthesis inhibitor PCIB", "assay_type": "in vivo, soybean", "protocol": "FIGS. 7A-7C depict involvement of auxin in the regulation of waterlogging tolerance. Complementation of qWL_Gm03 by auxin biosynthesis inhibitor in waterlogging tolerance (FIG. 7A) and induction of adventitious roots (FIG. 7B). The two lines were waterlogging treated for 10 days using water (control) and 10 μM p-Chlorophen-oxyisobutyric acid (PCIB: an auxin biosynthesis inhibitor). Then plants were allowed to recover for 7 days (left) before evaluation for flooding injury scores and adventitious root rating. Data shown are means±standard deviations of 9 biological replicates (soil pots) and each replicate contains 2 to 3 plants. Student's-t-test was used to compare means between NIL147_aa and NIL147_AA. FIG. 7C Expression of GmARF20 in the roots during waterlogging treatment. GmARF20 in soybean is the closest homologue of AtARF19 in Arabidopsis (Ha et al. 2013). Data shown are means±standard deviations of two biological replicates and each replicate contains 10 plants.\nWaterlogging test were performed in both field and greenhouse. Field tests for RIL populations and fine-mapping were conducted at the Lee Farm at the DRC in Portageville, MO The evaluation of NILs were performed at four locations, including DRC (MO), Rhower Research Station (AR), Delta Research and Extension Center (MS) and Red River Research Station (LA). The soil types of the four locations were Sharkey clay (very fine, smectitic, thermic Chromic Epiaquerts). Each lines were planted in hill plots at a density of 8 seeds per plot with 1 meter spacing with 2 to 3 replications. Waterlogging treatments were imposed by flood irrigation. Water was pumped on the field when 80% of the lines within each maturity block were at the R1 growth stage (Fehr and Caviness 1977). […]\nAuxin generally promotes root initiation and elongation (reviewed by Overvoorde et al. 2010). Therefore, the involvement of auxin in waterlogging tolerance was further evaluated by the treatment of an auxin biosynthesis inhibitor: p-Chlorophen-oxyisobutyric acid (PCIB) on the NILs (NIL147_aa and NIL147_AA) during waterlogging. […]", "key": {"[1]": {"settings": "10 μM PCIB vs water control, waterlogging treated for 10 days, 7 days recovery, NIL147_aa and NIL147_AA"}}}
{"smiles": "CC(C)(Oc1ccc(Cl)cc1)C(=O)O", "note": "[PCIB, p-Chlorophen-oxyisobutyric acid]", "values": [{"measurement": "genotypic differences of qWL_Gm03 in waterlogging tolerance performance and formation of adventitious/aerial roots", "setting": "10 μM PCIB during waterlogging, NIL147_aa vs NIL147_AA", "result": "complement the genotypic differences"}, {"measurement": "formation of adventitious/aerial roots (adventitious root rating)", "setting": "[1]", "result": "significantly impair"}, {"measurement": "waterlogging tolerance (flooding injury scores)", "setting": "[1]", "result": "significantly impair"}]}
